From patent US20240360179A1, “STAPLED PEPTIDES AND METHODS THEREOF” (FOG PHARMACEUTICALS, INC., priority 2021, published 2024)

Experiments:
[1] = tested on: Wnt/beta-catenin pathway in COLO320DM tumors; experiment: Tumor RNA-sequencing and GSEA in COLO320DM tumors; type: in vivo, mice; conditions: 48-hr post-dose, i.p. 30 mg/kg
From the text: It is noted that both negatively and positively enriched gene sets were observed. Among other things, the present disclosure provides technologies for assessing efficacy of a method, e.g., a treatment, comprising assessing expression of one or more negatively and/or positively enriched genes. In some embodiments, if expression profiles of one or more genes are negatively and/or positively enriched as identified herein, a method may be considered to have efficacy, and/or administration (e.g., of provided technologies such as stapled peptides, compositions, etc.) to a subject can continue. […]
RNAseq Data Analysis. In some embodiments, sequence reads were trimmed to remove possible adapter sequences and nucleotides with poor quality using Trimmomatic v.0.39. The trimmed reads were mapped to the Homo sapiens GRCh38 reference genome available on ENSEMBL using the STAR aligner v.2.7.7a. For grafted tumor samples, host reads were removed with XenofilteR. Unique gene hit counts were calculated by using featureCounts from the R Subread package v.2.4.2. Read filtering, normalization, and differentially expression analysis was performed with the edgeR package v.4.0.2 in R. Genes with an adjusted p-value <0.01 and absolute log 2 fold change >1 were called as differentially expressed genes for each comparison. […]
RNAseq Preparation. […] On average over 60 million 2×150 base pair reads were produced per sample. […]

[2] = molecular target: T1, beta-catenin/TCF4 interaction (Homo sapiens, UniProt P35222); experiment: Co-immunoprecipitation of endogenous beta-catenin in DLD1 cells; type: cell-based
T1 construct: endogenous in cells; host or cells: DLD1
T1 sequence (P35222 2-781 limits assumed): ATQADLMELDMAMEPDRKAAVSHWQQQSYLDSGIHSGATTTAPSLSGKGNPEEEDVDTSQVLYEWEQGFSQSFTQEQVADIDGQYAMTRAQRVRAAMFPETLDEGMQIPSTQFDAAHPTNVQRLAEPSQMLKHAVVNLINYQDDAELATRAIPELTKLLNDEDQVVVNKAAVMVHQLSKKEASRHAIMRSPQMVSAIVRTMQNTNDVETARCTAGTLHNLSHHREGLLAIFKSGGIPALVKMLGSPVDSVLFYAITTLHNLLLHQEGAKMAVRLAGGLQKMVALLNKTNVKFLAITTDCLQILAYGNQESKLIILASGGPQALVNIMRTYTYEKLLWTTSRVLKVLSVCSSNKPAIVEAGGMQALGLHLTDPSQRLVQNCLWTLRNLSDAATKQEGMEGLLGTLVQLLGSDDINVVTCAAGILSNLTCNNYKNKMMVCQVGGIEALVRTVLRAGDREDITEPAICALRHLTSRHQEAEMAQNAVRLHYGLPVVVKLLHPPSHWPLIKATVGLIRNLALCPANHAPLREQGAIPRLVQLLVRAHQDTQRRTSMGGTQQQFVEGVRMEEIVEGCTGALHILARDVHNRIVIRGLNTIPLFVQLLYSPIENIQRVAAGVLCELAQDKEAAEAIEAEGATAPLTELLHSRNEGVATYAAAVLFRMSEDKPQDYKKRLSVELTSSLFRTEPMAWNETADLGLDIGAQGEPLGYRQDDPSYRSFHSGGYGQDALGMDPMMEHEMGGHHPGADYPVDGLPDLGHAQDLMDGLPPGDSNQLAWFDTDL
Experimental: Co-Immunoprecipitation. […] In some embodiments, for co-IP experiments, DLD1 cells were treated with compounds for a period of time, e.g., 4 hours. […] Briefly, 30 μL of protein A/G magnetic beads were added to each lysate and incubated for 1 hr at room temperature.

“Ac-PL3-Glu-Npg-B5-Glu-3COOHF-Aib-Ala-Phe-Lys*3-PyrS2-3Thi-BztA-GlnR*3-Ala-NH2 [I-470]” was tested, and the concentration in tumors [1] was 5181 ng/gram and the “beta-catenin/TCF4 interaction by co-IP and Western blotting” value [2] was “not”.
